Assay results from patent publication US20040204481A1, “Activation of natural killer cells by adenosine A3 receptor agonists” (priority 2001, published 2004).
Entries after “also recorded” stand apart in the source; their conditions may differ.

Legend:
[1] = test system: human peripheral blood NK cells; test: 4 h 51Cr-release NK cytotoxicity assay, in vitro preincubation with agonist, K562 leukemia cells as targets; format: cell-based; settings: for activity of natural killer cells following preincubation: 10 nM Cl-IB-MECA, 18 hours preincubation, K562 targets, E:T ratio 1:50, FIG. 1
Protocol: Murine splenocytes were derived from spleens of ICR mice and human mononuclear cells were separated by Ficoll-Hypaque gradient from heparinized blood of healthy normal volunteers.
(§1) The effect of Cl-IB-MECA on the activity of human peripheral blood NK cells was assayed by a standard 4 h ^51Cr-release assay using K562 leukemia cells as targets. Splenocytes or human mononuclear cells were cultured at a concentration of 5×10^5 cells/well in 96 well round bottom plates, and used as the effector (E) cells. The cells were preincubated with 10 nM Cl-IB-MECA for 18 hours, then the agonist was washed out from the wells and the cells were re-suspended in RPMI containing 5% FCS. K562 cells were used as the targets (T) and were labeled with 100 μci of Na2[^51Cr]O4 at 37° C., for 1 hr.
(§2) After extensive washing to remove the excess ^51Cr, target cells (1×10^4) were re-suspended in RPMI and mixed with the effector cells at an E:T ratio of 1:50 in a total volume of 200 μl (triplicate assays). After 4 hours of incubation at 37° C. in 5% CO2, plates were centrifuged, and the supernatants were counted in a gamma counter (LKB).
(§3) NK cytotoxicity was calculated using the following equation (CPM: counts per minute): [formula]
(§4) CPM sample, CPM spontaneous and CPM maximal were determined by measuring the CPM of the supernatants of the target cells in the presence of […], the assay medium or in the presence of 1% triton, respectively. It should be noted that spontaneous release was below 10% of the maximal release throughout this experiment.

murine NK cells = test: NK activity (51Cr assay) of splenocytes from ICR mice after oral administration; format: in vivo; settings: FIG. 2; for NK activity of splenocytes derived from treated mice: 6 μg/kg orally for two consecutive days
Protocol: as §1, §2, §3, §4
ICR mice were orally administered for two consecutive days with 6 μg/kg body weight of Cl-IB-MECA. After 4, 11 and 18 days, mice were sacrificed and spleens were removed. Splenocytes were separated and tested for NK activity using the ^51Cr assay as described above.

NK cells = test: NK activity (51Cr assay) of splenocytes from B-16 melanoma bearing mice treated orally; format: in vivo, C57B1/6J mice; settings: for NK activity of splenocytes versus vehicle control group: 15 days, B-16 melanoma inoculated mice, FIG. 3
Protocol: In a further study C57B1/6J mice were used as the model mice which will develop metastatic lung foci after 15 days. The C57B1/6J mice were inoculated intravenously with B-16 melanoma cells (2.5×10^5) and treated daily orally with 6 or 9 μg/kg body weight of Cl-IB-MECA (starting one day after tumor inoculation). After 15 days, the mice were sacrificed and spleens were removed.
Splenocytes were separated and tested for NK activity using the ^51Cr assay as described above. […] The splenocytes derived from the group treated with 6 μg/kg body weight of Cl-IB-MECA were designated as “activated” cells and those derived from the control group were designated as “non-activated” splenocytes.

B-16 melanoma cells = test: Adoptive transfer of splenocytes to melanoma bearing mice, count of lung melanoma foci; format: in vivo; settings: splenocytes from 6 μg/kg Cl-IB-MECA treated mice engrafted 4 days after B-16 inoculation; day 15; versus non-activated splenocytes or control; FIG. 4
From the text: In another experiment, the capability of the “activated” splenocytes to act in vivo against melanoma cells was examined. The “non-activated” and “activated” splenocytes were engrafted to mice that were inoculated 4 days earlier with B-16 melanoma cells (2.5×10^5). As the control served mice that were inoculated with the B-16 melanoma cells however not engrafted with splenocytes. The mice were sacrificed on day 15 and their lungs were removed. The number of lung melanoma foci was counted, the results for which are depicted in FIG. 4.

Compound	effect of the A3 receptor antagonist on the stimulatory effect of Cl-IB-MECA on NK activity ([1]; MRS-1220 introduced with Cl-IB-MECA, FIG. 1)	NK activity of splenocytes derived from treated mice (murine NK cells; after 4 days)	NK activity of splenocytes derived from treated mice (murine NK cells; after 11 days)	NK activity of splenocytes derived from treated mice (murine NK cells; following 18 days)	time of maximal activation of murine NK cells (murine NK cells; oral administration) [days]	NK activity of splenocytes versus vehicle control group (NK cells; 6 μg/kg daily orally)	NK activity of splenocytes versus vehicle control group (NK cells; 9 μg/kg daily orally)	NK cell activity in splenocytes derived from treated melanoma bearing mice (NK cells; FIG. 3 legend, dose not stated there)	activity of natural killer cells following preincubation [1]	activity of natural killer cells following preincubation ([1]; listed as CI-IB-MECA)	development of lung metastatic foci (B-16 melanoma cells)
O=C(Cc1ccccc1)Nc1nc2ccc(Cl)cc2c2nc(-c3ccco3)nn12 [MRS-1220, 9-chloro-2-(2-furanyl)-5-[(phenylacetyl)amino] [1,2,4,] -triazolo[1,5-c] quinazoline]	reversed the stimulatory effect; also recorded: abolished the stimulatory effect	–	–	–	–	–	–	–	–	–	–
CNC(=O)[C@H]1O[C@@H](n2cnc3c(NCc4cccc(I)c4)nc(Cl)nc32)[C@H](O)[C@@H]1O [Cl-IB-MECA, 2-chloro-N^6-(3-iodobenzyl)-adenosine-5′-N-methyl-uronamide]	–	marked increase	high activity was still observed	only slight increase	4	marked increase	marked increase	increased NK cell activity	potentiation	significant dose dependent increase	decreased number of lung foci
